Measurements published in patent US5648373A, “CoA-IT and PAF inhibitors” (SmithKline Beecham Corporation, priority 1992, dated 1997).
Entries after “also recorded” stand apart in the source; their conditions may differ.

How the values were obtained:
[1] = system: TPA-induced inflammation in the mouse ear; test: TPA-induced inflammation of the mouse ear (assay d): ear thickness, myeloperoxidase; type: in vivo; conditions: topical TPA
Method: The ability of compounds that inhibit CoA-IT to affect in vivo inflammatory responses was assessed. Inflammatory responses were induced in the mouse ear by the topical application of a pro-inflammatory agent, such as 12-0-tetradecanoylphorbol 13-acetate. This produced an edematous response, as measured by increases in ear thickness, as well as increased inflammatory cellular infiltrate, as measured by increases in myeloperoxidase activity as described in the methods.
Male Balb/c inbred mice were obtained from Charle River Breeding Laboratories (Kingston, N.Y.). Within a single experiment mice (22-25 g) were age-matched. These in vivo experiments typically involved use of 5-6 animals/group.
TPA (12-0-tetradecanoylphorbol 13-acetate) (Sigma Chemical Company) in acetone (4 μg/20 μl) was applied to the inner and outer surfaces of the left ear of BALB/c male mice. The thickness of both ears was then measured with a dial micrometer (Mitutoyo, Japan) at both 2 and 4 hours after treatment, and the data expressed as the change in thickness (10-^3 cm) between treated and untreated ears. […] After measuring the edema, the inflammed left ears were removed and stored at -70° C. until they were assayed for MPO (myeloperoxidase) activity where appropriate. […]

human neutrophils [2] = test: Arachidonic acid release assay (assay b), A23187-challenged neutrophils; type: cell-based
Method: Human neutrophils were obtained in the laboratory using three different methods. One method used leukophoresis packs from normal humans and neutrophils were isolated using the histopaque-1077 technique. The blood was centrifuged at 300× g for 10 minutes. The cell pellets were resuspended in PBS composed of 137 mM NaCI, 8.8 mM Na2HPO4, 1.5 mM KH2PO4, 2.7 mM KCI (Dulbecco's Gibco Laboratories, Long Island, N.Y.) and layered over histopaque-1077 (Sigma, St. Louis, Mo.). The pellets were collected after centrifugation (300× g for 30 minutes) and washed once in PBS. The cell pellets were exposed briefly to dionized water to Iyse any erythrocytes. The remaining cells were collected by centrifugation, suspended in PBS, counted and identified after cytospinning and staining. The final leukocyte preparation was of greater than 95% purity and viability.
The second method isolated human neutrophils from fresh heparinized normal blood using the Histopaque-1077 technique. […] The remaining cells were collected by centrifugation, suspended in PBS, counted and identified after cytospinning and staining. […]
The third method isolated human neutrophils from freshly drawn heparinized normal blood using the Percoll technique. […] The neutrophils were suspended in PBS, counted and identified after cytospinning and staining. […]

human neutrophils [3] = test: Assay for production of platelet-activating factor (assay c), A23187-challenged neutrophils; type: cell-based
Method: Blood was obtained from normal humans and neutrophils were isolated as described for the arachidonic acid release assay, above. The final leukocyte preparation was of greater than 95% purity and viability.
Neutrophils were suspended in PBS at concentrations of 5 to 20×10^6 cells per ml. Cells were added to test tubes and treated with the desired compounds for 5 to 10 minutes, then challenged with calcium ionophore A23187, 2 μM and 20-30 μCi of [^3 H]acetic acid (NEN-Dupont, Boston, Mass.), or the vehicle of PBS with 0.25-1 mg/ml […]. After 5 to 20 minutes, the reactions were terminated by addition of an equal volume of chloroform:methanol (1:2, v/v) to the samples and the lipids were extracted by addition of equal volumes of chloroform and distilled water. The samples were vortexed and centrifuged at high speed and the chloroform layer removed to a clean tube.
The chloroform from each tube was evaporated to dryness and the material suspended in a small volume of chloroform or chloroform:methanol (25-100 μl) and the total material spotted on a Silica TLC plate. The plates were developed in chloroform/methanol/acetic acid/water (50:25:8:4, v/v) visualized by radioscanning (Bioscan) and the product, [^3 H]PAF, was scraped and quantified by liquid scintillation spectroscopy. With this TLC system, the Rf value for a synthetic standard of PAF was approximately 0.33.

[4] = system: mouse bone marrow-derived mast cells; test: Arachidonate content of cellular phospholipids of mast cells (method e); type: cell-based
Method: As treatment of intact cells blocks the movement of arachidonate into specific cellular phospholipids, it followed that prolonged treatment of inflammatory cells with CoA-IT inhibitors could deplete their large endogenous pools of arachidonate within phospholipids. To determine that CoA-IT inhibition can alter the amount of arachidonate within cellular phospholipids, mouse bone marrow-derived mast cells were treated with Compound 3 for 24 hours and the mass of arachidonate within total cellular phospholipids was determined. Compound 3 induced a concentration-dependentreduction in the total cellular arachidonate within mast cells, with greater than 75% reduction apparent at 20 μM. […]
The following is the method for assessing the ability of a compound to alter arachidonate content of cellular phospholipids, which can be generalized for any desired cell. […] The radioactive and mole quantities of arachidonate in complex lipids are determined. At this point, cellular lipid extracts are treated with KOH (0.5M) to remove fatty acids from complex lipids (phospholipids) and the quantities of arachidonate in these extracts can then be determined by various methods, including gas chromatography and mass spectrometry (Chilton [Methods Enzymol. (1990) 187, 157-166]).

intact human neutrophils = test: Movement of [3H]arachidonate into 1-ether-linked phospholipids in intact non-stimulated neutrophils (method e); type: cell-based; conditions: various concentrations, 2 hours, no cellular stimulation
Method: CoA-IT activity can also be measured in intact cells by following the movement of a pulse of [^3 H]arachidonate as it moves into the "pool 2" phospholipids (1-alkyl and 1-alkenyl phospholipids) in inflammatory cells. These specific studies were performed in intact human neutrophils, which contain CoA-IT activity and transfer arachidonate into 1-alkyl and 1-alkenyl phospholipids. To determine the effects of Compound 3 on this transfer of arachidonate, neutrophils were exposed briefly to [^3 H]arachidonic acid to allow incorporation of the label into 1-acyl phospholipids, treated with various concentrations of Compound 3 and the movement of [^3 H]arachidonate between phospholipid subclasses assessed over the subsequent 2 hours in the absence of cellular stimulation.
Measurement of the effect of CoA-IT inhibitors on the transfer of [^3 H]arachidonate into 1-ether phospholipids in non-stimulated inflammatory cells can be accomplished by general application of the following specific method. Human neutrophils were isolated and resuspended (5×10^7 /ml) in Hanks Balanced Salt Solution (HBSS; Gibco). […] The phospholipid subclasses were separated by TLC in benzene/hexane/ethyl ether (50:45:4, v/v), located by image analysis (Bioscan) and the amount of radioactivity in each class was determined by zonal scraping and liquid scintillation counting.

## CCOP(=O)(CCCCCCCn1c(-c2ccccc2)c(-c2ccccc2)n(-c2ccccc2)c1=O)OCC [Compound 3, Diethyl 7-(3-4-5-triphenyl-2-oxo-2-3-dihydroimidazol-1-yl)heptane phosphonate]
[1]; listed as Example 3
  anti-inflammatory effect in vivo (TPA-induced mouse ear inflammation): positive inhibition; also recorded: anti-inflammatory responses
[1]; listed as compound 3
  anti-inflammatory effect in vivo (TPA-induced mouse ear inflammation): anti-inflammatory effect
Human neutrophils [2]
  inhibition of free arachidonic acid release: completely and in a concentration dependent fashion; also recorded: inhibition
Human neutrophils [3]
  inhibition of PAF production: completely and in a concentration dependent fashion; also recorded: inhibition
[4]; 24 hours, various concentrations
  loss of arachidonate from all major phospholipid classes of the mast cell: concentration-dependent loss
[4]; mast cells
  loss in the mass of 18:0, 18:1, 18:2 from PI, PE and PC: no loss
Intact human neutrophils
  movement of [3H]arachidonate into 1-ether-linked phospholipids, 1-alkyl PC and 1-alkenyl PE: concentration-dependent blockade; also recorded: completely block
Intact human neutrophils; listed as Example 3
  movement of [3H]arachidonate into 1-ether-linked phospholipids, 1-alkyl PC and 1-alkenyl PE: concentration-dependent blockade
